Laboratory results as given in patent US7179819B2, “VLA-4 inhibitor compounds” (Daiichi Pharmaceutical Co., Ltd., priority 1999, dated 2007).
Values joined by “and” are separate entries in the source; they are usually repeats but may differ in a detail not shown here. Equal entries are not always repeated. Structures can show the parent of a compound that is named as a salt. Where two headings read alike, the source gives them in different places. Blank lines part the entries; values can stand above or below the compound they belong to.

Tests used:
[1] = tested on: eosinophil infiltration; experiment: Murine model of Ascaris-induced bronchial inflammation: eosinophil infiltration into bronchoalveolar lavage fluid; type: in vivo; conditions: mouse
Procedure: The VLA-4 inhibitors may be further characterized in in vivo assays. One such assay examines the inhibition of eosinophil infiltration into the bronchoalveolar lavage fluid in the mouse (murine) model. In this assay, the animals are treated with cyclophosphamide on day 0. On days 2 and 14, the animals are immunized intraperitoneally with Ascaris suum extract. Seven days later, the animals are treated with various doses of the VLA-4 inhibitor. Shortly after drug administration, the animals are challenged with Ascaris suum extract by instillation into the trachea. Bronchoalveolar lavage of the animal is performed by instilling saline into the lung, 48 hours later. Total cell and eosinophil counts in the lavage are determined.

[2] = in vivo; conditions: monkey, serum, intravenous, 2 mg/kg
[3] = Mouse bio-assay: serum concentration after oral dosing, determined by direct binding assay of diluted serum; conditions: female, Balb/c, serum, po
Procedure: A compound was dissolved or suspended with an appropriate solvent at 1 mg/mL. Female Balb/c mice (7–9 weeks old) were given the compound orally. Blood samples were collected from the postcaval vein of the anesthetized mice after fifteen minutes. Serum was prepared and stored at −20° C. Serum concentration of the compound was determined from inhibitory activities of the diluted serum by a direct binding assay using VLA-4-expressing cells and VCAM-IgG fusion protein. Serum concentration determined by this method correlated well with the concentration determined by LC/MS/MS methodologies.

[4] = Pharmacokinetic evaluation in rat; type: in vivo; conditions: for AUC (total area under the plasma concentration versus time curve): LC/MS/MS; for clearance / MRT: plasma, 10 mg/kg; for clearance: read-out: CL (apparent plasma clearance); for MRT: read-out: MRT (mean residence time)
[5] = iv, 10 mg/kg (i.v.), line of AUC 0–6 hr
[6] = iv, 10 mg/kg (i.v.), line of AUC 0–∞

Compound: 4-(N′-2-methylphenylurea)phenylacetyl-LDVP-OH [reference compound]
- % Inhibition of Eosinophil Infiltration ([1]; oral dosage of 50 mg/kg): −2%

Compound: CC(C)NCC(O)COc1ccc(CC(N)=O)cc1 (stereo not drawn) [ATENOLOL, reference compound]
- concentration at 5 min [2]: 4060 ng/mL
- concentration at 30 min [2]: 1190 ng/mL
- concentration at 1 hr [2]: 771 ng/mL
- concentration at 2 hr [2]: 479 ng/mL
- concentration at 4 hr [2]: 348 ng/mL
- concentration at 8 hr [2]: 137 ng/mL

Compound: Cc1ccccc1NC(=O)Nc1ccc(CC(=O)N2C[C@@H](F)C[C@H]2COc2ccc(C(=O)O)cc2)cc1C [Compound 78, 4-[(4S)-fluoro-1-[3-methyl-4-[N′-(2-methylphenyl)ureido]phenylacetyl]-(2S)-pyrrolidinyl]methoxybenzoic acid]
- concentration at 15 min ([3]; 10 mg/kg): 368 ng/mL

Compound: Cc1cc(CC(=O)N2C[C@@H](F)C[C@H]2COc2ccc(C(=O)O)cc2)ccc1NC(=O)Nc1ccccc1Cl [Compound 79, 4-[1-[4-[N′-(2-chlorophenyl)ureido]-3-methylphenylacetyl]-(4S)-fluoro-(2S)-pyrrolidinyl]methoxybenzoic acid]
- concentration at 15 min ([3]; 10 mg/kg): 618 ng/mL
- % Inhibition of Eosinophil Infiltration ([1]; 30 mg/kg b.i.d. × 2 days, i.v.): 35.9%
- AUC (total area under the plasma concentration versus time curve) ([4]; 10 mg/kg (i.v.), 0–6 hr): 5259 (0–6 hr) ng · h/mL
- AUC (total area under the plasma concentration versus time curve) ([4]; 10 mg/kg (i.v.), 0–∞): 5389 (0–∞) ng · h/mL
- AUC (total area under the plasma concentration versus time curve) ([4]; 10 mg/kg (p.o.), 0–6 hr): 22119 (0–6 hr) ng · h/mL
- AUC (total area under the plasma concentration versus time curve) ([4]; 10 mg/kg (p.o.), 0–∞): 24867 (0–∞) ng · h/mL
- CL (apparent plasma clearance) ([4]; 10 mg/kg (p.o.), line of AUC 0–6 hr): 8.5 mL/min/kg
- CL (apparent plasma clearance) ([4]; 10 mg/kg (p.o.), line of AUC 0–∞): 6.7 mL/min/kg
- clearance [4, 5]: 31.7 mL/min/kg
- MRT [4, 5]: 24 min
- clearance [4, 6]: 30.9 mL/min/kg
- MRT [4, 6]: 36 min
- MRT ([4]; po, 10 mg/kg (p.o.), line of AUC 0–6 hr): 30 min
- MRT ([4]; po, 10 mg/kg (p.o.), line of AUC 0–∞): 42 min

Compound: Cc1ccccc1NC(=O)Nc1ccc(CC(=O)N2C[C@@H](F)C[C@H]2COc2ccc(C(=O)O)cc2)c(F)c1F [Compound 97, 4-[1-[4-[N′-(2-methylphenyl)ureido]-2,3 difluorophenylacetyl]-(4S)-fluoro-(2S)-pyrrolidinylmethoxy]benzoic acid]
- concentration at 15 min ([3]; 10 mg/kg): 1730 ng/mL

Compound: Cc1ccccc1NC(=O)Nc1cc(F)c(CC(=O)N2C[C@@H](F)C[C@H]2COc2ccc(C(=O)O)cc2)cc1F [Compound 98, 4-[1-[4-[N′-(2-methylphenyl)ureido]-2,5-difluorophenylacetyl]-(4S)-fluoro-(2S)-pyrrolidinylmethoxy]benzoic acid]
- concentration at 15 min ([3]; 10 mg/kg): 2800 ng/mL

Compound: COc1cc(CC(=O)N2C[C@@H](Oc3ccc4ccccc4c3)C[C@H]2COc2ccc(C(=O)O)cc2)ccc1NC(=O)Nc1ccccc1Cl [Compound 124, 4-[(2S,4S)-1-[4-[N′-(2-chlorophenyl)ureido]-3-methoxyphenylacetyl]-4-(2-naphtyloxy)-2-pyrrolidinyl]methoxybenzoic acid]
- concentration at 15 min ([3]; 10 mg/kg): 841 ng/mL

Compound: COc1cc(CC(=O)N2[C@H](COc3ccc(C(=O)O)cc3)CC[C@@H]2c2ccccc2)ccc1NC(=O)Nc1ccccc1Cl [Compound 146, 4-[1-[4-[N′-(2-chlorophenyl)ureido]-3-methoxyphenylacetyl]-5-(R)-phenyl-2-(S)-pyrrolidinylmethoxy]benzoic acid]
- concentration at 15 min ([3]; 10 mg/kg): 527 ng/mL

Compound: COc1cc(CC(=O)N2C3CCCCC3C[C@H]2COc2ccc(C(=O)O)cc2)ccc1NC(=O)Nc1ccccc1Cl (stereo partly drawn) [Compound 166, 4-[1-[4-[N′-(2-chlorophenyl)ureido]-3-methoxyphenylacetyl]-(2S)-octahydroindolylmethoxy]benzoic acid]
- concentration at 15 min ([3]; 10 mg/kg): 360 ng/mL
- melting point: 133 to 136 °C

Compound: COc1cc(CC(=O)N2C3CCCCC3C[C@H]2COC2CCC(C(=O)O)CC2)ccc1NC(=O)Nc1ccccc1Br (stereo partly drawn) [Compound 179, cis-4-[-1-[4-[N′-(2-bromophenyl)ureido]-3-methoxylphenylacetyl]-(2S)-octahydroindolylmethoxy]cyclohexanecarboxylic acid]
- concentration at 15 min ([3]; 10 mg/kg): 428 ng/mL
- melting point: 115 to 120 °C

Compound: C=CCN(CCOc1ccc(C(=O)O)cc1)C(=O)Cc1ccc(NC(=O)Nc2ccccc2Br)c(OC)c1 [Compound 311, 4-[2-N-allyl-N-[4-[N′(2-bromophenyl)ureido]-3-methoxyphenyl]acetamido]ethoxybenzoic acid]
- % Inhibition of Eosinophil Infiltration ([1]; 50 mg/kg t.i.d. × 2 days, p.o.): 42.5%
- % Inhibition of Eosinophil Infiltration ([1]; 50 mg/kg t.i.d. × 2 days, s.c., 50 mg/kg): 80.2% and 49.3%

Compound: Cc1cc(CC(=O)N2C[C@@H](F)C[C@H]2COc2ccc(C(=O)O)cc2)ccc1NC(=O)Nc1c(Cl)cccc1Cl [Example 83, 4-[(2S, 4S)-1-[4-[N′-(2,6-Dichlorophenyl)ureido]-3-methylphenylacetyl]4-fluoro-2-pyrrolidinyl]methoxybenzoic acid]
- melting point: 174 to 180 °C (dec.)

Now from value to compound, other results behind:

- melting point: 141 to 145 °C
Compound: COc1cc(C(=O)O)ccc1C#CC1CCCN1C(=O)Cc1ccc(NC(=O)Nc2ccccc2C)c(OC)c1 (stereo not drawn) [Compound 36, 3-methoxy4-[2-[1-[3-methoxy4-[N′-(2-methylphenyl)ureido]phenylacetyl]-2-pyrrolidinyl]ethynyl]benzoic acid]
- inhibition of eosinophil infiltration ([1]; oral dosage of 30 mg/kg): 49%

- concentration at 30 min ([3]; 50 mg/kg): 3610 ng/mL
Compound: COc1cc(CC(=O)N2CCC[C@H]2COc2ccc(C(=O)O)cc2)ccc1NC(=O)Nc1ccccc1Cl [Compound 58, 4-[1-[4-[N′-(2-chlorophenyl)ureido]-3-methoxylphenylacetyl]-(2S)-pyrrolindinyl]methoxybenzoic acid]

- concentration at 15 min ([3]; 10 mg/kg): 503 ng/mL
- melting point: 126 to 131 °C
Compound: COc1cc(CC(=O)N2C[C@@H](Cl)C[C@H]2COc2ccc(C(=O)O)cc2)ccc1NC(=O)Nc1ccccc1Cl [Compound 102, 4-[(4S)-chloro-1-[3-methoxy-4-[N′-(2-chlorophenyl)ureido]phenylacetyl]-(2S)-pyrrolidinyl]methoxybenzoic acid]

- concentration at 15 min ([3]; 10 mg/kg): 224 ng/mL
Compound: COc1cc(CC(=O)N2C[C@@H](OC)C[C@H]2COc2ccc(C(=O)O)cc2)ccc1NC(=O)Nc1ccccc1Br [Compound 134, 4-[(2S,4S)-1-[4-[N′-(2-bromophenyl)ureido]-3-methoxyphenylacetyl]-4-methoxy-2-pyrrolidinyl]methoxybenzoic acid]

- melting point: 202 to 205 °C
Compound: COc1cc(CC(=O)N[C@@H](C)COc2ccc(C(=O)O)cc2)ccc1NC(=O)Nc1ccccc1Br [Compound 294, (S)-4-[2-[3-methoxy-4-[N′-(2-bromophenyl)ureido]phenylacetylamino]-1-propoxy]benzoic acid]

- melting point: 155 to 160 °C
Compound: COc1cc(CC(=O)N(C)CCNc2ccc(C(=O)O)c(NC(C)=O)c2)ccc1NC(=O)Nc1ccccc1Br [Compound 303, 2-acetylamino-4-[2-N-[4-[N′-(2-bromophenyl)ureido]-3-methoxyphenyl]-N-methylacetamido]ethylaminobenzoic acid]

- concentration at 15 min ([3]; 10 mg/kg): 669 ng/mL
Compound: C#CCN(CCOc1ccc(C(=O)O)cc1)C(=O)Cc1ccc(NC(=O)Nc2ccccc2Cl)c(OC)c1 [Compound 309, 4-[2-N-[4-[N′-(2-chlorophenyl)ureido]-3-methoxyphenyl]-N-propargylacetamido]-ethoxybenzoic acid]

- concentration at 30 min ([3]; 50 mg/kg): 2310 ng/mL
Compound: COC(=O)c1ccc(OCCN(CCN2CCOCC2)C(=O)Cc2ccc(NC(=O)Nc3ccccc3C)c(OC)c2)cc1 [Compound 314, methyl 4-[2-N-[2-(4-morpholinyl)ethyl]-N-[3-methoxy-4-[N′-(2-methylphenyl)ureido]phenyl]-acetamido]ethoxybenzoate]
- % Inhibition of Eosinophil Infiltration ([1]; 50 mg/kg t.i.d. × 2 days, p.o.): 18.9%

- concentration at 30 min ([3]; 50 mg/kg): 2100 ng/mL
Compound: COc1cc(CC(=O)N(CCOc2ccc(C(=O)OC(C)C)cc2)CCN2CCOCC2)ccc1NC(=O)Nc1ccccc1C [Compound 318, isopropyl 4-[2-N-[2-(4-morpholinyl)ethyl]-N-[3-methoxy-4-[N′-(2-methylphenyl)ureido]phenyl]acetamido]ethoxybenzoate]

- concentration at 15 min ([3]; 50 mg/kg): 603 ng/mL
Compound: COc1cc(CC(=O)N(CCOc2ccc(C(=O)O)cc2)CCN2CCC(F)(F)C2)ccc1NC(=O)Nc1ccccc1Br [Compound 319, 4-[2-N-[2-(3,3-difluoro-1-pyrrolidinyl)ethyl]-N-[4-[N′-(2-bromophenyl)ureido]-3-methoxyphenyl]acetamido]ethoxybenzoic acid sodium salt]

- concentration at 15 min ([3]; 50 mg/kg): 1420 ng/mL
Compound: C=CCN(CC=C)CCN(CCOc1ccc(C(=O)O)cc1)C(=O)Cc1ccc(NC(=O)Nc2ccccc2Cl)c(OC)c1 [Compound 323, 4-[2-N-(N′, N′-diallyl)ethyl-N-[4-[N′-(2-chlorophenyl)ureido]-3-methoxyphenylacetamido]ethoxy]benzoic acid sodium salt]

- melting point: 138 to 141 °C
Compound: COc1cc(CC(=O)N2C[C@@H](NS(=O)(=O)c3cccc4c(N(C)C)cccc34)C[C@H]2COc2ccc(C(=O)O)cc2)ccc1NC(=O)Nc1ccccc1Br [Example 155, 4-[1-[4-[N′-(2-bromophenyl)ureido]-3-methoxyphenylacetyl]-4dansylamino-(2S)-pyrrolidinyl]methoxybenzoic acid]
